The numbers were not newly measured in article PMC5863612 (Chemical Science, 2017), which cites them from elsewhere.

One may read the Km as the concentration of substrate that gives half-maximal velocity.

This data set relates to βPGM. To be noted: for Km: previously recorded result.

`O=P(O)(O)O[C@@H]1O[C@H](CO)[C@@H](O)[C@H](O)[C@H]1O` [βG1P, β-D-glucose 1-phosphate]: the Km was 14.7 µM.

With `O=P(O)(O)OC[C@H]1O[C@@H](OP(=O)(O)O)[C@H](O)[C@@H](O)[C@@H]1O` [βG16BP, β-glucose-1,6-bisphosphate], the Michaelis-Menten constant (Km) was 0.72 ± 0.04 µM.

As for fluorine, the “Inhibition of βPGM (reported range)” value is recorded as “low millimolar range”.
